This note sets out measurements from ChEMBL document CHEMBL6127128, “Discovery of the First-in-Class Dual-Target ROCK/HDAC Inhibitor with Potent Antitumor Efficacy in Vivo That Trigger Antitumor Immunity” (J Med Chem, 2024).

One series deals with Histone deacetylase 1 (Homo sapiens, UniProt Q13547). The series can be described thus: Inhibition of HDAC1 (unknown origin) using Ac-Leu-Gly-Lys(Ac)-AMC as substrate preincubated for 5 mins followed by substrate addition for 30 mins and measured following trypsin addition for 30 mins by fluorescence based analysis.
Another series deals with Histone deacetylase 4 (Homo sapiens, UniProt P56524). Description: Inhibition of HDAC4 (unknown origin) using Ac-Leu-Gly-Lys(tfa)-AMC as substrate preincubated for 5 mins followed by substrate addition for 30 mins and measured following trypsin addition for 30 mins by fluorescence based analysis.
The target of the next series is T1, Histone deacetylase 7 (Homo sapiens, UniProt Q8WUI4).
T1 sequence (Q8WUI4 whole entry): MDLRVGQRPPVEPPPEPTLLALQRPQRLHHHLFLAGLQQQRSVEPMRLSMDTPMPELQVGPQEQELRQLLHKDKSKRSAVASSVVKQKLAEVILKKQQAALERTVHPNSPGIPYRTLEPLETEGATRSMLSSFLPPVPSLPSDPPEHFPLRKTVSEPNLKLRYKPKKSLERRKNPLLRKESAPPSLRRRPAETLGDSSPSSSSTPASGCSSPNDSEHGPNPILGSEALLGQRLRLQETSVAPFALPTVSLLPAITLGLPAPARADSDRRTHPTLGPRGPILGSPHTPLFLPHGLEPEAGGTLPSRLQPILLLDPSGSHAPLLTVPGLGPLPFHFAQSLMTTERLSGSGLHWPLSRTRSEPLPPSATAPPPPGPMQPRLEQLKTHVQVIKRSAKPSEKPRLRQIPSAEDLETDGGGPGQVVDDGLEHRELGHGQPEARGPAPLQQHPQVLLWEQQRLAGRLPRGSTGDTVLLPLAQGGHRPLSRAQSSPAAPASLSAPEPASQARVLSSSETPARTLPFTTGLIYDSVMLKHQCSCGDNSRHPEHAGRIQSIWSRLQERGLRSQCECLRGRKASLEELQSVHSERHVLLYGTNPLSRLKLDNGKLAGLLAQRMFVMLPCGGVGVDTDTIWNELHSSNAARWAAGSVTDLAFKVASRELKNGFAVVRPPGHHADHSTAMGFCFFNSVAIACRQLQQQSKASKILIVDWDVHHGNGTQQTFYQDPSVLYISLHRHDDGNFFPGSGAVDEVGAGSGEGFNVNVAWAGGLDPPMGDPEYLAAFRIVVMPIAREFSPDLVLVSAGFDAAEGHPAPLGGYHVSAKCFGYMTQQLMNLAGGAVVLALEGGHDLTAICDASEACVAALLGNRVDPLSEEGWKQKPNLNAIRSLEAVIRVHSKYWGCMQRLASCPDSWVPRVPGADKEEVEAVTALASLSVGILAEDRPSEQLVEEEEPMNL
The series can be described thus: Inhibition of HDAC7 (unknown origin) using Ac-Leu-Gly-Lys(tfa)-AMC as substrate preincubated for 5 mins followed by substrate addition for 30 mins and measured following trypsin addition for 30 mins by fluorescence based analysis.

The target in a further series is Histone deacetylase 9 (Homo sapiens, UniProt Q9UKV0). Description: Inhibition of HDAC9 (unknown origin) using Ac-Leu-Gly-Lys(tfa)-AMC as substrate preincubated for 5 mins followed by substrate addition for 30 mins and measured following trypsin addition for 30 mins by fluorescence based analysis.
The subject of another series is MDA-MB-231. The series can be described thus: Induction of immunogenic cell death-associated DAMP release in human MDA-MB-231 cells assessed as increase in extracellular HMGB1 release by mesuring increase in HMGB1 level in medium supernatant at 10 uM incubated for 24 hrs by ELISA. The series is classed as functional, cell-based. For orientation: An ELISA detects its analyte on a solid surface through an enzyme-linked reagent.

Series [1] deals with 4T1. Description: Antitumor activity against mouse 4T1 cells implanted in Balb/c mouse assessed as tumor weight at 50 mg/kg, po administered daily for 15 days. The class given is functional. Conditions: time 15 day.
Series [2] deals with 4T1. The series can be described thus: animal or person. The series is classed as functional. Particulars: Mus musculus, 4T1, 360 h, route po, time 15 day, read-out: TGI.
Description: Antitumor activity against mouse 4T1 cells implanted in Balb/c mouse assessed as inhibition of tumor growth rate at 50 mg/kg, po administered daily for 15 days
Series [3] in a line: Toxicity against Balb/c mouse implanted with mouse 4T1 cells assessed as effect on body weight changes at 25 to 50 mg/kg, po administered daily for 15 days. Particulars: in vivo, 360 h, dose 25-50 mg/kg, time 15 day. The series is classed as organism-based.
Series [4] in a line: Toxicity against Balb/c mouse implanted with mouse 4T1 cells assessed as effect on morphological changes in lung at 25 to 50 mg/kg, po administered daily for 15 days by Hematoxylin-Eosin staining based analysis. The series is classed as organism-based. Conditions: in vivo, 360 h, dose 25-50 mg/kg, time 15 day.
Series [5] in a line: Half-life in Balb/c mouse at 1 mg/kg, iv measured for 24 hrs by LC-MS/MS analysis. The series is classed as ADME, organism-based. Conditions: in vivo.
Series [6] is described as follows: AUC (0 to infinity) in Balb/c mouse at 50 mg/kg, po measured for 24 hrs by LC-MS/MS analysis. The class given is ADME, organism-based. Particulars: in vivo.
In another series the test system is Mus musculus. Description: Induction of immunogenic cell death-associated DAMP release in tumor of Balb/c mouse implanted with mouse 4T1 cells assessed as extranuclear diffusion of HMGB1 by measuring decrease in red fluorescence aggregates at 25 to 50 mg/kg, po administered daily for 15 days by immunofluorescence analysis. The series is classed as functional, organism-based. Particulars: dose 25-50 mg/kg, time 15.0 day.

Series [7] deals with 4T1. Description: Antitumor immunity against mouse 4T1 cells implanted in Balb/c mouse assessed as increase in CD40+ dendritic cells in tumor tissue at 25 mg/kg, po administered daily for 15 days by immunohistochemistry. Particulars: time 15.0 day. The class given is functional, organism-based.
Series [8] has as its system 4T1. Description: Antitumor immunity against mouse 4T1 cells implanted in Balb/c mouse assessed as increase in CD40+ dendritic cells in tumor tissue at 50 mg/kg, po administered daily for 15 days by immunohistochemistry relative to SAHA. The series is classed as functional. Particulars: time 15 day.
The subject of series [9] is 4T1. Description: Antitumor immunity against mouse 4T1 cells implanted in Balb/c mouse assessed as increase in CD4+ T cells in tumor tissue at 25 mg/kg, po administered daily for 15 days by flow cytometry. The class given is functional, organism-based. Particulars: time 15.0 day. (Flow cytometry measures light scatter and fluorescence of single cells or particles in a stream.)

For series [10], the system named is 4T1. The series can be described thus: Antitumor immunity against mouse 4T1 cells implanted in Balb/c mouse assessed as increase in CD3+ T cells in tumor tissue at 50 mg/kg, po administered daily for 15 days by flow cytometry relative to SAHA. The class given is functional. Particulars: time 15 day.
Series [11] concerns 4T1. Description: Antitumor immunity against mouse 4T1 cells implanted in Balb/c mouse assessed as increase in CD8+ T cells in tumor tissue at 50 mg/kg, po administered daily for 15 days by flow cytometry relative to SAHA. Conditions: time 15 day. The class given is functional.

pIC50: −log10 of the molar value. Calls of active or inactive are those of the source.

Chain of Histone deacetylase 4 (P56524 whole entry): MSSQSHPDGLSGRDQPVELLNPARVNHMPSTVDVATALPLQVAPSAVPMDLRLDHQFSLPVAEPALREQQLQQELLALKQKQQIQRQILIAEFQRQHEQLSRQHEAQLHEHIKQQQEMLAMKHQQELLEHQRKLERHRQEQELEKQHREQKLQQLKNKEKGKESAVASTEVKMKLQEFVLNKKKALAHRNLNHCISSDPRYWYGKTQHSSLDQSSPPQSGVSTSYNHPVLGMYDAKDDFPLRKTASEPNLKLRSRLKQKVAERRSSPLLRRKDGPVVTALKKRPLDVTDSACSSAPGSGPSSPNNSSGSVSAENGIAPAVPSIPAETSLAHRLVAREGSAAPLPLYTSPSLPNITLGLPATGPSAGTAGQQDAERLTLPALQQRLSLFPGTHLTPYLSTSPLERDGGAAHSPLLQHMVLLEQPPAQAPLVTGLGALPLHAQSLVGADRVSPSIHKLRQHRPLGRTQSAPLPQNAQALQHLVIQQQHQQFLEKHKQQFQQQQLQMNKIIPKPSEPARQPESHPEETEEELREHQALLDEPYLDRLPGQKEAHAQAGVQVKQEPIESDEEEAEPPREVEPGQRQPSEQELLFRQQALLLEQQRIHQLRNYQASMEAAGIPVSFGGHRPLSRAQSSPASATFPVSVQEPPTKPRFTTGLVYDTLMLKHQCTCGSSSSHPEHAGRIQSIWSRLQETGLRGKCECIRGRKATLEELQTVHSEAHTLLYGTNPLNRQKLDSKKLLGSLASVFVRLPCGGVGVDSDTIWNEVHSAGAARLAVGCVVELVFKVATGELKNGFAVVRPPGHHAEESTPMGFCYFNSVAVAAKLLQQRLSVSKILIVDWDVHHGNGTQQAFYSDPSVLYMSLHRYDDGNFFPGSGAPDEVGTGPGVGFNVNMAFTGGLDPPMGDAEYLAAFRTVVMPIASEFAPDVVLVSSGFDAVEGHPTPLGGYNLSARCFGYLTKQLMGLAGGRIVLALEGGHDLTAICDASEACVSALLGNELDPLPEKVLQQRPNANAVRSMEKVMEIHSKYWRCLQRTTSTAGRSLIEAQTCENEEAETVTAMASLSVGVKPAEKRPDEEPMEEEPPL
Chain of Histone deacetylase 1 (Q13547 whole entry): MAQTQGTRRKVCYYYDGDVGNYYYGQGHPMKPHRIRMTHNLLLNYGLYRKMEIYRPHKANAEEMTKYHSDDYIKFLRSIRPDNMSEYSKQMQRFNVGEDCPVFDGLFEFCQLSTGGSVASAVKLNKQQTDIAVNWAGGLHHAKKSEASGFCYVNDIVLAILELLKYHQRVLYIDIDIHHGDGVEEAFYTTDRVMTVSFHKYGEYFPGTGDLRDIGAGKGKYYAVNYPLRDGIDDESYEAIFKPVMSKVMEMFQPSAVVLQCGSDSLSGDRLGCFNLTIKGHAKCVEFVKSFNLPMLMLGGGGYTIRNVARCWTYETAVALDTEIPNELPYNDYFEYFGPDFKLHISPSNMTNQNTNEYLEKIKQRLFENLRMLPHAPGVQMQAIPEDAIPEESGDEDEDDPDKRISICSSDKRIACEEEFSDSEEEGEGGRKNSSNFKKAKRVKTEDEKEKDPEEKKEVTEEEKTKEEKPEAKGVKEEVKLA
Chain of Histone deacetylase 9 (Q9UKV0 whole entry): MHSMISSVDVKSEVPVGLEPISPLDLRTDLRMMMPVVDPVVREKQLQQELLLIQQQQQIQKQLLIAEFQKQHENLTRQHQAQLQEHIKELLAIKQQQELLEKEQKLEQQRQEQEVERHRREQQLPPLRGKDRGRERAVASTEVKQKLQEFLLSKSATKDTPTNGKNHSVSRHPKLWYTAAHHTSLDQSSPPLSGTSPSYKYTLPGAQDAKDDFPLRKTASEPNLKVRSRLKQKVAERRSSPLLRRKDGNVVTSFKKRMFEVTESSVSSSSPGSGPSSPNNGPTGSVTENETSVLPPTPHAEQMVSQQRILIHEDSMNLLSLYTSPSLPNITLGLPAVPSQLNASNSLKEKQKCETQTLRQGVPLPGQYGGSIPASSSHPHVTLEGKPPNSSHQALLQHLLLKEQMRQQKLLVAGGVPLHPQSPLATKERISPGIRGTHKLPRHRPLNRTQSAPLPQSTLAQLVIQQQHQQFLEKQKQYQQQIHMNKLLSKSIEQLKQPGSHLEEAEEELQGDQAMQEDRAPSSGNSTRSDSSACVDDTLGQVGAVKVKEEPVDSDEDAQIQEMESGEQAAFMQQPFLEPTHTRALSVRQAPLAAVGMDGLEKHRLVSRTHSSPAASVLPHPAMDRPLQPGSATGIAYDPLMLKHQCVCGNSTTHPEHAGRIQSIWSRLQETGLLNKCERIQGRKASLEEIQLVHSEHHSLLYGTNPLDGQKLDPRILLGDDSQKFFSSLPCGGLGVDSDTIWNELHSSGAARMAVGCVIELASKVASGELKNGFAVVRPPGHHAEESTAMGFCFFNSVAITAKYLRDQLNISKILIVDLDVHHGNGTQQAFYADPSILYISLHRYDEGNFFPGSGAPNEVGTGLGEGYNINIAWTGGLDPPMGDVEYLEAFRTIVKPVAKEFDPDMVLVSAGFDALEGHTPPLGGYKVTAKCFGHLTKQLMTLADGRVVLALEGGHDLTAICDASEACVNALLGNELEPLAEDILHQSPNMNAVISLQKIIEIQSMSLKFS

Consider `O=C(CCCCCCNC(=O)c1cc2cc(-c3cn[nH]c3)ccc2s1)NO`, for which the pIC50 against Histone deacetylase 1 is 8.04; against Histone deacetylase 4, less than 5.00; at Histone deacetylase 7, less than 5.00; against Histone deacetylase 9 it was less than 5.00. Also, the outcome in the series with MDA-MB-231, in the series with Mus musculus, with 4T1 [7] and with 4T1 [9] was Active. Besides, the figures for the Activity (in the series on 4T1 [1]; in series [3]; in [4]) were 0.16 g, “Non-Toxic” and “Non-Toxic”, respectively. For the same molecule, the inhibition in vivo at 50 mg/kg in the series on 4T1 [2] is 69.4%. In addition, in series [5], the half-life is 1340 min. The same molecule showed an AUC(0-inf) in [6] of 5.95 ng·h/mL. In addition, the “fold change (FC)” value in the series with 4T1 [8] stood at 2.3; in the series on 4T1 [10], 1.36; in the series on 4T1 [11], 1.21.

As a reminder, the pIC50 is the IC50 on a negative log10 scale, so that one unit is a factor of ten. Low readings indicate a large IC50, high ones a small IC50. What is called half-life is the time needed for the level to fall by half in the phase considered. Low values mean rapid decline, high ones slow decline. In general, AUC(0-inf) refers to the area under the concentration-time curve extrapolated to infinity. A lower AUC(0-inf) goes with low exposure.
